We go through 28 molecules from patent US20260265265A1, “NOVEL BENZIMIDAZOLONE DERIVATIVE COMPOUND AS AUTOTAXIN INHIBITOR” (LG CHEM, LTD., priority 2023, published 2026).

Each structure is given as a SMILES string.

This test has as its target T1, Recombinant Human ENPP-2/Autotaxin (Homo sapiens, UniProt Q13822).
T1 construct: purchased R&D systems 5255-EN
Nature of the test: LysoPLD activity measurement (autotaxin enzyme inhibition, choline release, TOOS reagent). Type of test: biochemical. The following applies: LysoPLD inhibitory activity; substrate 14:0 LysoPC; absorbance at 555 nm. An outline of the steps: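 Enzyme and compound were preincubated for 30 min before adding 14:0 LysoPC substrate, diluted to 300 μM, for 90 minutes at 37° C. The choline product was quantified colorimetrically with TOOS reagent. Wells without compound held 1% DMSO.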
Regarding `CC(C)(CO)c1ccc(-n2c(=O)n(C3(c4cccc(C(=O)O)c4)CC3)c3ccc(Cl)cc32)cc1` [Example 218, 3-(1-(5-chloro-3-(4-(1-hydroxy-2-methylpropan-2-yl)phenyl)-2-oxo-2,3-dihydro-1H-benzo[d]imidazol-1-yl)cyclopropyl)benzoic acid], the IC50 was less than 10 nM.
The same measure for `CC(C)(CF)c1ccc(-n2c(=O)n(C3(c4cccc(C(=O)O)c4)CC3)c3ccc(Cl)cc32)cc1` [Example 219, 3-(1-(5-chloro-3-(4-(1-fluoro-2-methylpropan-2-yl)phenyl)-2-oxo-2,3-dihydro-1H-benzo[d]imidazol-1-yl)cyclopropyl)benzoic acid]: less than 10 nM; for `O=C(O)c1cccc(C2(n3c(=O)n(-c4ccc(C5CCOCC5)cc4)c4cc(Cl)cnc43)CC2)c1` [Example 220, 3-(1-(6-chloro-2-oxo-1-(4-(tetrahydro-2H-pyran-4-yl)phenyl)-1,2-dihydro-3H-imidazo[4,5-b]pyridin-3-yl)cyclopropyl)benzoic acid]: less than 10 nM.
As for `CN(C)c1ccc(-n2c(=O)n(C3(c4cccc(C(=O)O)c4)CC3)c3ncc(Cl)cc32)cc1` [Example 221, 3-(1-(6-chloro-1-(4-(dimethylamino)phenyl)-2-oxo-1,2-dihydro-3H-imidazo[4,5-b]pyridin-3-yl)cyclopropyl)benzoic acid], the IC50 is less than 10 nM.
To `O=C(O)c1cccc(C2(n3c(=O)n(-c4ccc(N5CCOCC5)cc4)c4cc(Cl)cnc43)CC2)c1` [Example 222, 3-(1-(6-chloro-1-(4-morpholinophenyl)-2-oxo-1,2-dihydro-3H-imidazo[4,5-b]pyridin-3-yl)cyclopropyl)benzoic acid] belongs less than 10 nM; to `CN(C)C(=O)c1ccc(-n2c(=O)n(C3(c4cccc(C(=O)O)c4)CC3)c3ncc(Cl)cc32)cc1` [Example 223, 3-(1-(6-chloro-1-(4-(dimethylcarbamoyl)phenyl)-2-oxo-1,2-dihydro-3H-imidazo[4,5-b]pyridin-3-yl)cyclopropyl)benzoic acid], less than 10 nM.
Turning to `O=C(O)c1cccc(C2(n3c(=O)n(-c4ccc(C(=O)N5CC(O)C5)cc4)c4cc(Cl)cnc43)CC2)c1` [Example 224, 3-(1-(6-chloro-1-(4-(3-hydroxyazetidine-1-carbonyl)phenyl)-2-oxo-1,2-dihydro-3H-imidazo[4,5-b]pyridin-3-yl)cyclopropyl)benzoic acid], the IC50 is less than 10 nM.
For `O=C(O)c1cccc(C2(n3c(=O)n(-c4ccc(C(=O)N5CC6(CCOCC6)C5)cc4)c4cc(Cl)cnc43)CC2)c1` [Example 225, 3-(1-(1-(4-(7-oxa-2-azaspiro[3.5]nonane-2-carbonyl)phenyl)-6-chloro-2-oxo-1,2-dihydro-3H-imidazo[4,5-b]pyridin-3-yl)cyclopropyl)benzoic acid], the IC50 is less than 10 nM.
The same measure for `CN(C)C(=O)Cc1ccc(-n2c(=O)n(C3(c4cccc(C(=O)O)c4)CC3)c3ncc(Cl)cc32)cc1` [Example 226, 3-(1-(6-chloro-1-(4-(2-(dimethylamino)-2-oxoethyl)phenyl)-2-oxo-1,2-dihydro-3H-imidazo[4,5-b]pyridin-3-yl)cyclopropyl)benzoic acid]: 10 to 100 nM; for `CS(=O)(=O)c1ccc(-n2c(=O)n(C3(c4cccc(C(=O)O)c4)CC3)c3ncc(Cl)cc32)cc1` [Example 227, 3-(1-(6-chloro-1-(4-(methylsulfonyl)phenyl)-2-oxo-1,2-dihydro-3H-imidazo[4,5-b]pyridin-3-yl)cyclopropyl)benzoic acid]: 10 to 100 nM; for `O=C(O)c1cccc(C2(n3c(=O)n(-c4ccc(C5CCOCC5)cc4)c4cc(Cl)cnc43)CC2)c1F` [Example 228, 3-(1-(6-chloro-2-oxo-1-(4-(tetrahydro-2H-pyran-4-yl)phenyl)-1,2-dihydro-3H-imidazo[4,5-b]pyridin-3-yl)cyclopropyl)-2-fluorobenzoic acid]: 10 to 100 nM.
The same measure for `CN(C)c1ccc(-n2c(=O)n(C3(c4cccc(C(=O)O)c4F)CC3)c3ncc(Cl)cc32)cc1` [Example 229, 3-(1-(6-chloro-1-(4-(dimethylamino)phenyl)-2-oxo-1,2-dihydro-3H-imidazo[4,5-b]pyridin-3-yl)cyclopropyl)-2-fluorobenzoic acid]: less than 10 nM.
To `O=C(O)c1cccc(C2(n3c(=O)n(-c4ccc(N5CCOCC5)cc4)c4cc(Cl)cnc43)CC2)c1F` [Example 230] belongs 10 to 100 nM.
`O=C(O)c1cccc(C2(n3c(=O)n(-c4ccc(C(=O)N5CCCC5)cc4)c4cc(Cl)cnc43)CC2)c1F` [Example 231, 3-(1-(6-chloro-2-oxo-1-(4-(pyrrolidine-1-carbonyl)phenyl)-1,2-dihydro-3H-imidazo[4,5-b]pyridin-3-yl)cyclopropyl)-2-fluorobenzoic acid]: the IC50 was less than 10 nM.
As to `O=C(O)c1cccc(C2(n3c(=O)n(-c4ccc(C(=O)N5CC(O)C5)cc4)c4cc(Cl)cnc43)CC2)c1F` [Example 232, 3-(1-(6-chloro-1-(4-(3-hydroxyazetidine-1-carbonyl)phenyl)-2-oxo-1,2-dihydro-3H-imidazo[4,5-b]pyridin-3-yl)cyclopropyl)-2-fluorobenzoic acid], the IC50 was less than 10 nM.
The same measure for `O=C(O)c1cccc(C2(n3c(=O)n(-c4ccc(C(=O)N5CC6(COC6)C5)cc4)c4cc(Cl)cnc43)CC2)c1F` [Example 233, 3-(1-(1-(4-(2-oxa-6-azaspiro[3.3]heptane-6-carbonyl)phenyl)-6-chloro-2-oxo-1,2-dihydro-3H-imidazo[4,5-b]pyridin-3-yl)cyclopropyl)-2-fluorobenzoic acid]: 10 to 100 nM; for `CCC(=O)N1CCC(c2ccc(-n3c(=O)n(C4(c5cccc(C(=O)O)c5)CC4)c4ccc(Cl)cc43)cc2)CC1` [Example 234, 3-(1-(5-chloro-2-oxo-3-(4-(1-propionylpiperidin-4-yl)phenyl)-2,3-dihydro-1H-benzo[d]imidazol-1-yl)cyclopropyl)benzoic acid]: less than 10 nM.
With `CCC(=O)N1CCC(c2ccc(-n3c(=O)n(C4(c5cc(F)cc(C(=O)O)c5)CC4)c4ccc(Cl)cc43)cc2)CC1` [Example 235, 3-(1-(5-chloro-2-oxo-3-(4-(1-propionylpiperidin-4-yl)phenyl)-2,3-dihydro-1H-benzo[d]imidazol-1-yl)cyclopropyl)-5-fluorobenzoic acid], the IC50 is less than 10 nM.
As to `O=C(O)c1cccc(C2(n3c(=O)n(-c4ccc(CN5CCCC5=O)cc4)c4cc(Cl)ccc43)CC2)c1` [Example 236, 3-(1-(5-chloro-2-oxo-3-(4-((2-oxopyrrolidin-1-yl)methyl)phenyl)-2,3-dihydro-1H-benzo[d]imidazol-1-yl)cyclopropyl)benzoic acid], the IC50 was less than 10 nM.
The same measure for `O=C(O)c1cccc(C2(n3c(=O)n(-c4ccc(Cn5cnc(C(F)(F)F)c5)cc4)c4cc(Cl)ccc43)CC2)c1` [Example 237, 3-(1-(5-chloro-2-oxo-3-(4-((4-(trifluoromethyl)-1H-imidazol-1-yl)methyl)phenyl)-2,3-dihydro-1H-benzo[d]imidazol-1-yl)cyclopropyl)benzoic acid]: 10 to 100 nM; for `O=C(O)c1cccc(C2(n3c(=O)n(-c4ccc(C5(CO)CC5)cc4)c4cc(Cl)ccc43)CC2)c1` [Example 238, 3-(1-(5-chloro-3-(4-(1-(hydroxymethyl)cyclopropyl)phenyl)-2-oxo-2,3-dihydro-1H-benzo[d]imidazol-1-yl)cyclopropyl)benzoic acid]: less than 10 nM; for `O=C(O)c1cccc(C2(n3c(=O)n(-c4ccc(C5(CO)CCC5)cc4)c4cc(Cl)ccc43)CC2)c1` [Example 239, 3-(1-(5-chloro-3-(4-(1-(hydroxymethyl)cyclobutyl)phenyl)-2-oxo-2,3-dihydro-1H-benzo[d]imidazol-1-yl)cyclopropyl)benzoic acid]: less than 10 nM.
For the molecule `O=C(O)c1cccc(C2(n3c(=O)n(-c4ccc(CC5COC5)cc4)c4cc(Cl)ccc43)CC2)c1` [Example 240, 3-(1-(5-chloro-3-(4-(oxetan-3-ylmethyl)phenyl)-2-oxo-2,3-dihydro-1H-benzo[d]imidazol-1-yl)cyclopropyl)benzoic acid], the concentration for half-maximal inhibition (IC50) is less than 10 nM.
The same measure for `CN1CCN(Cc2ccc(-n3c(=O)n(C4(c5cccc(C(=O)O)c5)CC4)c4ccc(Cl)cc43)cc2)C1=O` [Example 241, 3-(1-(5-chloro-3-(4-((3-methyl-2-oxoimidazolin-1-yl)methyl)phenyl)-2-oxo-2,3-dihydro-1H-benzo[d]imidazol-1-yl)cyclopropyl)benzoic acid]: less than 10 nM.
Consider `CC1(C)COC(=O)N1c1ccc(-n2c(=O)n(C3(c4cccc(C(=O)O)c4)CC3)c3ccc(Cl)cc32)cc1` [Example 242, 3-(1-(5-chloro-3-(4-(4,4-dimethyl-2-oxooxazolidin-3-yl)phenyl)-2-oxo-2,3-dihydro-1H-benzo[d]imidazol-1-yl)cyclopropyl)benzoic acid], for which the IC50 was less than 10 nM.
For `O=C(O)c1cccc(C2(n3c(=O)n(-c4ccc(N5C(=O)OCC56CC6)cc4)c4cc(Cl)ccc43)CC2)c1` [Example 243, 3-(1-(5-chloro-2-oxo-3-(4-(5-oxo-6-oxa-4-azaspiro[2.4]heptan-4-yl)phenyl)-2,3-dihydro-1H-benzo[d]imidazol-1-yl)cyclopropyl)benzoic acid], the IC50 is less than 10 nM.
Consider `O=C(O)c1cccc(C2(n3c(=O)n(-c4ccc(Cn5ccc(C(F)(F)F)n5)cc4)c4cc(Cl)ccc43)CC2)c1` [Example 244, 3-(1-(5-chloro-2-oxo-3-(4-((3-(trifluoromethyl)-1H-pyrazol-1-yl)methyl)phenyl)-2,3-dihydro-1H-benzo[d]imidazol-1-yl)cyclopropyl)benzoic acid], for which the IC50 lay within 100 to 1000 nM.
With `CN1Cc2cc(-n3c(=O)n(C4(c5cccc(C(=O)O)c5)CC4)c4ccc(Cl)cc43)ccc2C1=O` [Example 245, 3-(1-(5-chloro-3-(2-methyl-1-oxoisoindolin-5-yl)-2-oxo-2,3-dihydro-1H-benzo[d]imidazol-1-yl)cyclopropyl)benzoic acid], the IC50 was less than 10 nM.
